Data as given in US20060069067A1, “Combination of an aromatase inhibitor with a bisphosphonate” (priority 2002, published 2006).

Assays:
Type in all cases: in vivo, rat
[1] = system: letrozole-treated rats; experiment: Compression test of the 5th lumbar vertebral body after letrozole administration
Experimental: (§1) Material and Methods: Adult, skeletally mature, 8-month-old female Wistar rats were assigned to the following treatment groups […]: Sham (vehicle), OVX, Let-treated, OVX +Zol and Let+Zol. Zol was injected into the tail vein as a single dose of 0.8, 4 or 20 μg/kg 3 days before OVX or before initiating daily oral dosing of Let (1 mg/kg) for 24 weeks. Changes in total and cancellous bone mineral density (BMD) and cortical thickness in the proximal tibia metaphysis were monitored non-invasively by peripheral quantitative computed tomography (pQCT) at 0, 2, 4, 8, 12, 16, 20 and 24 weeks.
(§2) Both tibiae, femora and lumbar vertebrae L1-L6 were harvested at necropsy in order to carry out biomechanical testing.
(§3) Mechanical properties of the 5th lumbar vertebral body were evaluated in compression after removal of the epiphyseal ends, posterior pedicle arch and spinous process on a 4 mm segment with piano-parallel ends.

[2] = system: letrozole-treated rats; experiment: pQCT monitoring of bone loss in the proximal tibia metaphysis of rats given daily oral letrozole
Experimental: (§4) It was investigated whether bone loss induced in rats by either ovariectomy (OVX) or the aromatase inhibitor letrozole (Let) could be prevented by the bisphosphonate zoledronic acid (Zol).
as §1

[3] = system: OVX rats; experiment: pQCT monitoring of bone loss in the proximal tibia metaphysis of ovariectomized rats
Experimental: as §4, §1

[4] = system: OVX rats; experiment: Compression test of the 5th lumbar vertebral body after OVX; settings: single iv 0.8, 4 or 20 μg/kg
Experimental: as §1, §2, §3

[5] = daily oral letrozole 1 mg/kg, at 24 weeks, P<0.01 vs sham
[6] = letrozole-treated rats, 4 μg/kg iv
[7] = letrozole-treated rats, highest dose (20 μg/kg iv), P<0.01 vs letrozole, NS vs sham

N#Cc1ccc(C(c2ccc(C#N)cc2)n2cncn2)cc1 [letrozole, 4-[α-(4-cyanophenyl)-1-(1,2,4-triazolyl)methyl]-benzonitrile]
ultimate bone strength of 5th lumbar vertebral body ([1]; daily oral letrozole 1 mg/kg for 24 weeks, NS): decreased | change in cancellous bone mineral density (cancellous bone loss) [2, 5]: −26% | change in mean cortical thickness [2, 5]: −21% | change in total BMD [2, 5]: −13%

O=P(O)(O)C(O)(Cn1ccnc1)P(=O)(O)O [zoledronic acid, 2-(imidazol-1yl)-1-hydroxyethane-1,1-diphosphonic acid]
ultimate bone strength of 5th lumbar vertebral body ([1]; letrozole-treated rats, single iv 0.8, 4 or 20 μg/kg, compression): dose-dependently improved | duration of full protection against cancellous bone loss ([3]; highest dose (20 μg/kg iv)): 20 weeks | duration of full protection of total BMD (NS vs sham) ([3]; highest dose (20 μg/kg iv)): 24 week | protection of cortical thickness (NS vs sham at all time points) ([3]; highest dose (20 μg/kg iv), 24-week study): fully protective for the full duration of the study | cancellous bone at 24 weeks ([3]; highest dose (20 μg/kg iv), 24 weeks, NS vs sham): mild cancellous bone loss was visible | time for which cancellous bone loss was delayed (marginally but significantly) ([3]; single iv 0.8 μg/kg): 12 weeks | protective effect on mean cortical thickness ([3]; single iv 0.8 μg/kg, at 2 weeks, P<0.05 vs OVX): marginal protective effect | time for which cancellous bone mineral density was significantly better than in OVX controls ([3]; single iv 4 μg/kg): 24 weeks | time for which cortical thickness was significantly better than in OVX controls ([3]; single iv 4 μg/kg): 12 weeks | time for which cancellous bone mineral density was significantly better than in OVX controls ([3]; single iv 20 μg/kg): 24 weeks | time for which cortical thickness was significantly better than in OVX controls ([3]; single iv 20 μg/kg): 24 weeks | time for which bone loss (total BMD) was delayed significantly ([3]; single iv injection 0.8 μg/kg 3 days before OVX): 8 weeks | time for which bone loss (total BMD) was delayed significantly ([3]; single iv injection 4 μg/kg): 20 weeks | time for which bone loss (total BMD) was delayed significantly ([3]; single iv injection 20 μg/kg): 24 weeks | ultimate bone strength of 5th lumbar vertebral body [4]: dose-dependently improved | time for which cancellous bone loss was fully prevented [2, 6]: 8 weeks | time for which cancellous bone mineral density remained significantly higher than in letrozole-treated rats [2, 6]: 24 weeks | time for which cortical thinning was fully prevented [2, 6]: 4 weeks | week until which cortical thickness stayed significantly above the letrozole control ([2]; letrozole-treated rats, 4 μg/kg iv, P<0.01 vs letrozole): 20 week | duration of full protection of total BMD (NS vs sham) ([2]; letrozole-treated rats, highest dose (20 μg/kg iv)): 24 week | duration of full protection against cancellous bone loss [2, 7]: 24 weeks | time for which cortical thinning was fully protected against [2, 7]: 24 weeks | time for which bone loss (total BMD) was delayed (marginally but significantly) ([2]; letrozole-treated rats, single iv 0.8 μg/kg): 4 weeks | time for which cancellous bone loss was delayed (marginally but significantly) ([2]; letrozole-treated rats, single iv 0.8 μg/kg, P<0.05 vs letrozole): 8 weeks | protective effect on mean cortical thickness ([2]; letrozole-treated rats, single iv 0.8 μg/kg, at 2 weeks, P<0.05 vs letrozole): marginal but significant protective effect | time for which bone loss (total BMD) was delayed significantly ([2]; letrozole-treated rats, single iv 4 μg/kg, P<0.01 vs letrozole): 24 weeks | time for which bone loss (total BMD) was delayed significantly ([2]; letrozole-treated rats, single iv 20 μg/kg, P<0.01 vs letrozole): 24 weeks | duration of full protection against Let-induced bone loss ([2]; rats, dose of 20 μg/kg): at least 24 weeks | protection against cancellous bone loss, cortical thinning and reduction of bone strength induced by daily oral Let ([2]; rats, summary in discussion): dose-dependently protects | protection against bone loss in rats treated with letrozole ([2]; summary statement): long term protection against bone loss
